# Assay results from patent US20210040062A1, “AZOLE-SUBSTITUTED PYRIDINE COMPOUND” (TAISHO PHARMACEUTICAL CO., LTD., priority 2016, published 2021).
# How the values were obtained:
# human CYP4F2 = molecular target: T1, human CYP4F2 (Homo sapiens, UniProt P78329); experiment: CYP4F2 inhibition test (Test Example 1); type: biochemical; conditions: Escherichia coli membrane fraction expressing human CYP4F2, 2.5 μM luciferine derivative, room temperature 60 minutes, luminescence
# T1 construct: host or cells: Escherichia coli (membrane fraction)
# T1 sequence (P78329 5-520): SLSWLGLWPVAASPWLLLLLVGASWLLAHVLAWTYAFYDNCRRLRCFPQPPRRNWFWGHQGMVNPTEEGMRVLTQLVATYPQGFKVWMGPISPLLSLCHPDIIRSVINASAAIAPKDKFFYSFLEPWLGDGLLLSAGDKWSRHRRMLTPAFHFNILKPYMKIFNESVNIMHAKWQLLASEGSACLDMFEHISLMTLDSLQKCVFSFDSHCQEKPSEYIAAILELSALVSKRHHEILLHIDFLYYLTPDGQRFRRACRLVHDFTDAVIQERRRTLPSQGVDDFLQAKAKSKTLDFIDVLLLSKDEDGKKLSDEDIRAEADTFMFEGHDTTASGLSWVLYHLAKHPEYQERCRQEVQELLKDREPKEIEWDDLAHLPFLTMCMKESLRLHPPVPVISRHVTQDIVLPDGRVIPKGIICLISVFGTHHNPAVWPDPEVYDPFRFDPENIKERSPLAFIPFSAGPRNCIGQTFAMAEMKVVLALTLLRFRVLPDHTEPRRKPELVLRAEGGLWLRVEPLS
# Description: (§1) (1) Inhibition Test for Each Compound of the Present Invention Against 20-HETE Producing Enzymes (CYP4F2 and CYP4A11)
# (§2) In the CYP4F2 inhibition test, the reaction solution containing each compound [final concentration of 50 mM, KPO4 (pH 7.4), 2.5 μM, luciferine derivative and 1 mM NADPH] was added to an Escherichia coli membrane fraction (100 μg/mL, protein) in which human CYP4F2 had been expressed. In the CYP4A11 inhibition test, the reaction solution containing each compound [final concentration of 100 mM, Tris-HCl (pH 7.5), 60 μM, luciferine derivative, 1.3 mM NADP^+, 3.3 mM Glucose 6-Phosphate, 3.3 mM MgCl2 and 0.4 U/mL Glucose 6-Phosphate dehydrogenase] was added to an Escherichia coli membrane fraction (100 μg/mL, protein) in which human CYP4A11 had been expressed. Following this, the membrane fraction was left to stand at room temperature for 60 minutes to perform an enzymatic reaction. After the reaction, a luciferine detection reagent was added, and the luminescence value was measured using a plate reader.
# (§3) A: Luminescence value with addition of compound
# (§4) B: Luminescence value without addition of compound and enzyme
# (§5) C: Luminescence value without addition of compound
# human CYP4A11 = molecular target: T2, human CYP4A11 (Homo sapiens, UniProt Q02928); experiment: CYP4A11 inhibition test (Test Example 1); type: biochemical; conditions: Escherichia coli membrane fraction expressing human CYP4A11, 60 μM luciferine derivative, room temperature 60 minutes, luminescence
# T2 construct: host or cells: Escherichia coli (membrane fraction)
# T2 sequence (Q02928 5-519): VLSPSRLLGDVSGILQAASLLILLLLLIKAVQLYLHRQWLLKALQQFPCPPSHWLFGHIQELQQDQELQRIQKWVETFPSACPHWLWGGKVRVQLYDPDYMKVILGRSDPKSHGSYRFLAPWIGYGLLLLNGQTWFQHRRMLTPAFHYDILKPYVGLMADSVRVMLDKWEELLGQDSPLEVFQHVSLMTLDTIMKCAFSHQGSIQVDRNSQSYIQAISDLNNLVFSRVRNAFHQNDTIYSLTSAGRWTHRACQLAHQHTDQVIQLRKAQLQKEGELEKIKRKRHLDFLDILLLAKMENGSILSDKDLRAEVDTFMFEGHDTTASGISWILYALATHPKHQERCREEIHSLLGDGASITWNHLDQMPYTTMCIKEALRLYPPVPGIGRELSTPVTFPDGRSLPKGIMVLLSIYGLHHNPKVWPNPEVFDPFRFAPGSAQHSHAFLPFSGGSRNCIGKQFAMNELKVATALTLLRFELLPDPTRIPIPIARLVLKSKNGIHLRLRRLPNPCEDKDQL
# Description: as §1, §2, §3, §4, §5
SMILES,IC50 (human CYP4F2),IC50 (human CYP4A11)
C[C@@H](CNC(=O)OC(C)(C)C)C(=O)N1CCC[C@@H](COc2ccc(-c3ccn[nH]3)nc2)C1 [Example 2-13],73 nM,100 nM
C[C@@H](CC(=O)N1CCC[C@@H](COc2ccc(-c3ccn[nH]3)nc2)C1)NC(=O)OC(C)(C)C [Example 2-14],29 nM,77 nM
CN(C)C(=O)CC(=O)N1CCC[C@@H](COc2ccc(-c3ccn[nH]3)nc2)C1 [Example 2-15],12000 nM,5800 nM
O=C(CC(=O)N1CCC[C@@H](COc2ccc(-c3ccn[nH]3)nc2)C1)N1CCCC1 [Example 2-16],3600 nM,7600 nM
CCCCNC(=O)CC(=O)N1CCC[C@@H](COc2ccc(-c3ccn[nH]3)nc2)C1 [Example 2-17],480 nM,270 nM
CC(C)NC(=O)CC(=O)N1CCC[C@@H](COc2ccc(-c3ccn[nH]3)nc2)C1 [Example 2-18],2900 nM,1800 nM
"O=C([C@H]1CC[C@H](O)CC1)N1CCC[C@@H](COc2ccc(-c3ccn[nH]3)nc2)C1 [Example 3-2, (4-Hydroxycyclohexyl)-((3R)-3-{[6-(1H-pyrazol-5-yl)pyridin-3-yl]oxymethyl}piperidin-1-yl)methanone]",2000 nM,2600 nM
"O=C([C@H]1CC[C@@H](O)CC1)N1CCC[C@@H](COc2ccc(-c3ccn[nH]3)nc2)C1 [Example 3-3, (4-Hydroxycyclohexyl)-((3R)-3-{[6-(1H-pyrazol-5-yl)pyridin-3-yl]oxymethyl}piperidin-1-yl)methanone]",790 nM,1700 nM
CS(=O)(=O)CC(=O)N1CCC[C@@H](COc2ccc(-c3ccn[nH]3)nc2)C1 [Example 3-4],4200 nM,500 nM
O=C(c1ccccc1)N1CCC[C@@H](COc2ccc(-c3ccn[nH]3)nc2)C1 [Example 3-5],440 nM,270 nM
O=C(C1CCOCC1)N1CCC[C@@H](COc2ccc(-c3ccn[nH]3)nc2)C1 [Example 3-9],1300 nM,2000 nM
O=C(N1CCC[C@@H](COc2ccc(-c3ccn[nH]3)nc2)C1)C(F)(F)C1(O)CCOCC1 [Example 3-10],430 nM,600 nM
O=C(N1CCC[C@@H](COc2ccc(-c3ccn[nH]3)nc2)C1)C(F)(F)C1(O)CCCC1 [Example 3-11],52 nM,190 nM
O=C(CN1CCCS1(=O)=O)N1CCC[C@@H](COc2ccc(-c3ccn[nH]3)nc2)C1 [Example 3-12],2600 nM,2800 nM
O=C(CC1CCS(=O)(=O)C1)N1CCC[C@@H](COc2ccc(-c3ccn[nH]3)nc2)C1 (stereo partly shown) [Example 3-13],280 nM,1500 nM
CC(=O)NCC(=O)N1CCC[C@@H](COc2ccc(-c3ccn[nH]3)nc2)C1 [Example 3-15],7100 nM,1200 nM
O=C(NCC(=O)N1CCC[C@@H](COc2ccc(-c3ccn[nH]3)nc2)C1)OCc1ccccc1 [Example 3-17],17 nM,77 nM
CC(C)(C)OC(=O)NCCC(=O)N1CCC[C@@H](COc2ccc(-c3ccn[nH]3)nc2)C1 [Example 3-18],18 nM,50 nM
NC(=O)CCC(=O)N1CCC[C@@H](COc2ccc(-c3ccn[nH]3)nc2)C1 [Example 3-19],2400 nM,1000 nM
O=C(CCC(=O)N1CCC[C@@H](COc2ccc(-c3ccn[nH]3)nc2)C1)N1CCOCC1 [Example 3-20],650 nM,3300 nM
NC(=O)NCCCC(=O)N1CCC[C@@H](COc2ccc(-c3ccn[nH]3)nc2)C1 [Example 3-21],720 nM,800 nM
CC(=O)N1CCCC1C(=O)N1CCC[C@@H](COc2ccc(-c3ccn[nH]3)nc2)C1 (stereo partly shown) [Example 3-23],4700 nM,3200 nM
CC(=O)N1CCC(C(=O)N2CCC[C@@H](COc3ccc(-c4ccn[nH]4)nc3)C2)CC1 [Example 3-24],490 nM,2000 nM
